According to patent US8115060B2, “Means and methods of controlling plant seed germination” (Applied Biotechnology Institute, Inc., priority 2008, dated 2012):

Experiments:
[1] = test system: corn plants expressing avidin with a constitutive promoter targeted to the cell wall; test: Reversal of avidin-induced male sterility by application of biotin to corn plants; assay type: in vivo; settings: biotin applied to plants; unpublished results
From the text: Biotin is a B vitamin and provides a safe chemical for seed treatment. In addition, biotin is inexpensive and readily available. […] When avidin was expressed in corn plants with a constitutive promoter targeted to the cell wall, male sterility occurred (14).

non-transformed seeds = test: Germination of non-transformed seeds imbibed in water with biotin; settings: biotin in water used for imbibing
From the text: Since our T0 plants were crossed with non-transgenic maize in the greenhouse, it is expected that half of the seeds in our initial transformed plants (T1 seed) should not carry the avidin gene.

[2] = test system: seeds from transformation events containing the avidin gene; test: Germination of T1 seeds containing the avidin gene, imbibed with and without biotin; assay type: in vivo, maize

O=C(O)CCCC[C@@H]1SC[C@@H]2NC(=O)N[C@@H]21 [biotin]
reversal of male sterility caused by avidin [1]: able to reverse the effect of avidin and render the plants fertile | biotin concentration tolerated with no detrimental signs of any effect on germination (non-transformed seeds): up to 10 μg/ml | number of seeds that failed to germinate ([2]; 20 seeds from a single ear of transformed corn imbibed with biotin, after one week, best result): one | change in number of non germinating seeds when biotin applied during imbibing ([2]; several experiments testing 240 seeds, compared with water): cut in half
